Data from patent US12319672B2, “Alpha-D-galactopyranoside derivatives” (Idorsia Pharmaceuticals Ltd, priority 2019, dated 2025).

Legend:
[1] = biological target: human Gal-3 (hGal-3) (Homo sapiens (Human), UniProt P17931); test: Competitive binding assay: binding of biotinylated hGal-3 to microplate-adsorbed asialofetuin (ASF); settings: Activity on hGal-3; mean values of several measurements
Method in brief: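 Biotin-hGal-3/hGal-1 300-1000 ng/mL + cpd (DMSO dilutions) on ASF-coated plate, 3 h 4° C; wash; SA-HRP 80 ng/mL 1 h 4° C; wash; ABTS. IC50 = mean of several runs. hGal-1 preferably Cys→Ser (all six) mutant.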

[2] = biological target: human Gal-1 (hGal-1); test: Competitive binding assay: binding of biotinylated hGal-1 to microplate-adsorbed asialofetuin (ASF); settings: Activities on hGal-1; mean values of several measurements
Method in brief: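 Compounds diluted in DMSO competed with biotinylated hGal-3 or hGal-1 (300-1000 ng/mL) for binding to plate-adsorbed asialofetuin for 3 h at 4° C. Bound galectin was detected with streptavidin-peroxidase (80 ng/mL, 1 h, 4° C) and ABTS substrate; IC50 reported as mean of several measurements.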

Sequence of human Gal-3 (hGal-3) (P17931 whole entry): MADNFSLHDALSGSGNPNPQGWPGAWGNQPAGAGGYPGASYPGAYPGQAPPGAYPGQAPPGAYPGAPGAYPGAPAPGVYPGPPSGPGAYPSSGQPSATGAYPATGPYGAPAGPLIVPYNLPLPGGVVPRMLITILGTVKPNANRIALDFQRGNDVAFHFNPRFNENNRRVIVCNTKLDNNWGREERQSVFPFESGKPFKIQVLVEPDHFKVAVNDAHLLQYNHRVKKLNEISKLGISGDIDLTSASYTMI
Sequence of human Gal-1 (hGal-1) (P09382 2-135 limits assumed): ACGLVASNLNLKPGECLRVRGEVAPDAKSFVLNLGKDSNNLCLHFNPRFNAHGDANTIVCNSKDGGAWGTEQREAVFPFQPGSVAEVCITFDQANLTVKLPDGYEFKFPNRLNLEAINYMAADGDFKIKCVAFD

Row | Structure (SMILES) | IC50 [1] [nM] | IC50 [2] [nM]
1 | CO[C@@H]1[C@@H](n2cc(-c3cccc(F)c3F)nn2)[C@@H](O)[C@@H](CO)O[C@@H]1Cc1cc(C(C)(C)C)on1 [Ex 1.351] | 180 | 1050
2 | CC(C)(C)OC(=O)N1CCCC(c2cc(C[C@H]3O[C@H](CO)[C@H](O)[C@H](n4cc(-c5cc(F)c(F)c(F)c5)nn4)[C@H]3O)no2)C1 (some centres unmarked) [Ex 1.54] | 290 | 6480
3 | O=c1[nH]c2ccc(C3=NO[C@@H](C[C@H]4O[C@H](CO)[C@H](O)[C@H](n5cc(-c6cc(F)c(F)c(F)c6)nn5)[C@H]4O)C3)cc2o1 [Ex 1.32] | 53 | 1150
4 | CO[C@@H]1[C@@H](n2cc(-c3cc(F)c(F)c(F)c3)nn2)[C@@H](O)[C@@H](CO)O[C@@H]1CC1CC(c2ccncc2)=NO1 (some centres unmarked) [Ex 1.17] | 700 | 8790
5 | CO[C@@H]1[C@@H](n2cc(-c3ccc(C)c(F)c3F)nn2)[C@@H](O)[C@@H](CO)O[C@@H]1Cc1cc(C2(C)CCOCC2)no1 [Ex 1.284] | 150 | 5850
6 | CO[C@@H]1[C@@H](n2cc(-c3cc(F)c(F)c(F)c3)nn2)[C@@H](O)[C@@H](CO)O[C@@H]1Cc1cc(C2CCC(NC(=O)OC(C)(C)C)CC2)no1 (some centres unmarked) [Ex 1.134] | 84 | 10800
7 | CN=[S@](=O)(C(C)C)N1CCC(c2cc(C[C@H]3O[C@H](CO)[C@H](O)[C@H](n4cc(-c5cc(F)c(F)c(F)c5)nn4)[C@H]3OC)no2)CC1 [Ex 1.139] | 42 | 1130
8 | CO[C@@H]1[C@@H](n2cc(-c3cc(F)c(F)c(F)c3)nn2)[C@@H](O)[C@@H](CO)O[C@@H]1Cc1cc(C2(C)CC2)no1 [Ex 1.215] | 100 | 610
9 | OC[C@H]1O[C@H](CC2CC(C3CCCC3)=NO2)[C@H](O)[C@@H](n2cc(-c3cc(F)c(F)c(F)c3)nn2)[C@H]1O (some centres unmarked) [Ex 1.11] | 510 | 5610

Next, values leading:

Row | IC50 [1] [nM] | IC50 [2] [nM] | Structure (SMILES)
10 | 300 | 4430 | CO[C@@H]1[C@@H](n2cc(-c3cc(F)c(F)c(F)c3)nn2)[C@@H](O)[C@@H](CO)O[C@@H]1Cn1cc(C2(O)CCC2)nn1 [Example 4.43, (2R,3R,4S,5R,6R)-6-((4-(1-hydroxycyclobutyl)-1H-1,2,3-triazol-1-yl)methyl)-2-(hydroxymethyl)-5-methoxy-4-(4-(3,4,5-trifluorophenyl)-1H-1,2,3-triazol-1-yl)tetrahydro-2H-pyran-3-ol]
11 | 22 | 2420 | Cc1ccc(-c2cn([C@H]3[C@@H](O)[C@@H](CO)O[C@H](Cc4cc(C(C)(C)C)no4)[C@@H]3OC(N)=O)nn2)c(F)c1F [Example 2.45, (2R,3R,4S,5R,6R)-2-((3-(tert-butyl)isoxazol-5-yl)methyl)-4-(4-(2,3-difluoro-4-methylphenyl)-1H-1,2,3-triazol-1-yl)-5-hydroxy-6-(hydroxymethyl)tetrahydro-2H-pyran-3-yl carbamate]
12 | 100 | 5840 | CC(C)(C)c1cc(C[C@H]2O[C@H](CO)[C@H](O)[C@H](n3cc(-c4cc(F)c(F)c(F)c4)nn3)[C@H]2OCC(=O)N2CCC(O)CC2)no1 [Example 2.41, 2-(((2R,3R,4S,5R,6R)-2-((5-(tert-butyl)isoxazol-3-yl)methyl)-5-hydroxy-6-(hydroxymethyl)-4-(4-(3,4,5-trifluorophenyl)-1H-1,2,3-triazol-1-yl)tetrahydro-2H-pyran-3-yl)oxy)-1-(4-hydroxypiperidin-1-yl)ethan-1-one]
13 | 690 | 20300 | CO[C@@H]1[C@@H](n2cc(-c3cc(F)c(F)c(F)c3)nn2)[C@@H](O)[C@@H](CO)O[C@@H]1Cn1cc(-c2ccc3[nH]c(=O)oc3c2)nn1 [Example 4.02, 6-(1-(((2R,3R,4S,5R,6R)-5-hydroxy-6-(hydroxymethyl)-3-methoxy-4-(4-(3,4,5-trifluorophenyl)-1H-1,2,3-triazol-1-yl)tetrahydro-2H-pyran-2-yl)methyl)-1H-1,2,3-triazol-4-yl)benzo[d]oxazol-2(3H)-one]
